From ChEMBL document CHEMBL5465560, “Selectivity Literature for EUbOPEN Chemogenomic Library” (2024)

Legend:
[1] = target: Citron Rho-interacting kinase (Homo sapiens) (UniProt O14578); conditions: at 10 µM
[2] = target: T1, Serine/threonine-protein kinase Nek11 (Homo sapiens) (UniProt Q8NG66); test: Selectivity interaction (KinomeScan (DiscoverX)) EUB0000092b NEK11; conditions: at 10 µM
T1 sequence (whole entry): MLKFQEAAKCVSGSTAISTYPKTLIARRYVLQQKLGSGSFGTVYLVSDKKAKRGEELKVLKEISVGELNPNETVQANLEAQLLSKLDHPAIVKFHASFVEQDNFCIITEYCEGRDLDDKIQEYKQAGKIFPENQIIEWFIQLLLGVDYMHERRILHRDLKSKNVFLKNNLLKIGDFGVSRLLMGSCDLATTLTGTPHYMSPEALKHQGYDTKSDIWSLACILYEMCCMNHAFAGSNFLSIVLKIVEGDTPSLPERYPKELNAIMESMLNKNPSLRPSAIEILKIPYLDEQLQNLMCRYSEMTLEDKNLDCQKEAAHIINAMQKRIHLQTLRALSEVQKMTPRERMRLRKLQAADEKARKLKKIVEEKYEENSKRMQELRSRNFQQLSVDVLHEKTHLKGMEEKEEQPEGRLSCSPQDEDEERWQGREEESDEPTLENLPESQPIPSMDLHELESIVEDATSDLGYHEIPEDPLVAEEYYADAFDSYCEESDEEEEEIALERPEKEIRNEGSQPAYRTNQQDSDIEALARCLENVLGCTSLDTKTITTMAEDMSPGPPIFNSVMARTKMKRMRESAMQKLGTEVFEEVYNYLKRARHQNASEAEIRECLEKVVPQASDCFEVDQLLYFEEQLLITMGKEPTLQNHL

[3] = target: 5-hydroxytryptamine receptor 1B (Homo sapiens) (UniProt P28222); test: Selectivity interaction (Safety Panel 44tm (Eurofins)) EUB0000162b HTR1B; conditions: at 10 µM
[4] = target: Cyclin-dependent kinase 16 (Homo sapiens) (UniProt Q00536); test: Selectivity interaction (KinomeScan (DiscoverX)) EUB0000655a CDK16; conditions: at 10 µM
[5] = target: T2, Mitogen-activated protein kinase kinase kinase 3 (Homo sapiens) (UniProt Q99759); test: Selectivity interaction (KinomeScan (DiscoverX)) EUB0000618a MAP3K3; conditions: at 10 µM
T2 sequence (whole entry): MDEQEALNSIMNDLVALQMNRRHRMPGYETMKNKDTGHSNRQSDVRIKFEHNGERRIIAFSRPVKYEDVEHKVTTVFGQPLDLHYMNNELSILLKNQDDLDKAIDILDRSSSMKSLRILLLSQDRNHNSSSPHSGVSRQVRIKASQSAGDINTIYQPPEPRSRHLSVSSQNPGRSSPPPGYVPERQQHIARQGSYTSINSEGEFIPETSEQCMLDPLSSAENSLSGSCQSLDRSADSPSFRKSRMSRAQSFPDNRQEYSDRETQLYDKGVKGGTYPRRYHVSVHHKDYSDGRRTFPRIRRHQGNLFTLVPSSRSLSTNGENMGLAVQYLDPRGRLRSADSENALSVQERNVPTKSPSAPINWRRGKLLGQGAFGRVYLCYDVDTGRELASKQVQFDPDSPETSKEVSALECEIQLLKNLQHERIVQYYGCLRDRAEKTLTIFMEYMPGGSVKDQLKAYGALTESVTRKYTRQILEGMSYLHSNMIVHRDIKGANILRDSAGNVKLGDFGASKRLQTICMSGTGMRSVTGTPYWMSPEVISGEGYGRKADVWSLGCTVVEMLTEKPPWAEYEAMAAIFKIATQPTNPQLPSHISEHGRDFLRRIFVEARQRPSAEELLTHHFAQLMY

[6] = target: T3, Serine/threonine-protein kinase Sgk3 (Homo sapiens) (UniProt Q96BR1); test: Selectivity interaction (KinomeScan (DiscoverX)) EUB0000618a SGK3; conditions: at 10 µM
T3 sequence (whole entry): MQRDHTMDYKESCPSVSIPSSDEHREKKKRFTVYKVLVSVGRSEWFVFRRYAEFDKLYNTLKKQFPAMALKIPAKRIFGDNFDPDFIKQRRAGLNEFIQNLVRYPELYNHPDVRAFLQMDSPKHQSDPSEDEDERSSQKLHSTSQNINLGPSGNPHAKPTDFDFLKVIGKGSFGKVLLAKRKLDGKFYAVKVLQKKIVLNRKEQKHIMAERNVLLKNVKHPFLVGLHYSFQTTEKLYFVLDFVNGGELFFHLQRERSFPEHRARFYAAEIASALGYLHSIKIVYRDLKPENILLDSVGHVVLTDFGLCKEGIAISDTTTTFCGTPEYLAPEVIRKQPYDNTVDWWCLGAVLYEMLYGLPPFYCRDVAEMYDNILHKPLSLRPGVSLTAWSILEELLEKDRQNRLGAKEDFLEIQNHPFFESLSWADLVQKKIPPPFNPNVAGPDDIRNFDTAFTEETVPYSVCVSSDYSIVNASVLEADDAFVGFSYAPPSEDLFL

[7] = target: T4, Cyclin-dependent kinase 11A (Homo sapiens) (UniProt Q9UQ88); test: Selectivity interaction (ActivX KiNativ screen (ex vivo kinase selectivity in human PBMCs)) EUB0001619a CDK11A; assay type: cell-based; conditions: PBMC, at 1 µM
T4 sequence (whole entry): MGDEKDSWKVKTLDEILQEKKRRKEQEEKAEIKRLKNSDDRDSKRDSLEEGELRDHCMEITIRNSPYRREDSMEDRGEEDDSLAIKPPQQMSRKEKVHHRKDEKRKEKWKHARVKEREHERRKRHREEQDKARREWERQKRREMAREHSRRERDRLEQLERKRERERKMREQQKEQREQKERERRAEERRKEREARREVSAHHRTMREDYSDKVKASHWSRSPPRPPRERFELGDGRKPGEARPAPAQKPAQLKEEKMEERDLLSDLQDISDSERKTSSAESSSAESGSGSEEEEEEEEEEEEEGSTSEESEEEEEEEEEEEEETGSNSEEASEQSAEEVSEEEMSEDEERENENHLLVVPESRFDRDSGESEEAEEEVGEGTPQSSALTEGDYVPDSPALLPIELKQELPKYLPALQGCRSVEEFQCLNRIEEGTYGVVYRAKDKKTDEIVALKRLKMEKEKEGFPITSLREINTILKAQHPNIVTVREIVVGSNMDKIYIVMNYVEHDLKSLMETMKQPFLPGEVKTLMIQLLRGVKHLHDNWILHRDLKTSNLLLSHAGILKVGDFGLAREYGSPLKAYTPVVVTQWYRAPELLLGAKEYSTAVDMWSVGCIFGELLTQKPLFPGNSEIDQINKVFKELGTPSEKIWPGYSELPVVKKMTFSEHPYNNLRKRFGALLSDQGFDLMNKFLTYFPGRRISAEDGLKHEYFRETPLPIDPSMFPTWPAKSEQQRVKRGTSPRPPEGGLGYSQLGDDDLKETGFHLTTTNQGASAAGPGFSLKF

Cyclin-dependent kinase 16 (Homo sapiens), sequence (Q00536 whole entry): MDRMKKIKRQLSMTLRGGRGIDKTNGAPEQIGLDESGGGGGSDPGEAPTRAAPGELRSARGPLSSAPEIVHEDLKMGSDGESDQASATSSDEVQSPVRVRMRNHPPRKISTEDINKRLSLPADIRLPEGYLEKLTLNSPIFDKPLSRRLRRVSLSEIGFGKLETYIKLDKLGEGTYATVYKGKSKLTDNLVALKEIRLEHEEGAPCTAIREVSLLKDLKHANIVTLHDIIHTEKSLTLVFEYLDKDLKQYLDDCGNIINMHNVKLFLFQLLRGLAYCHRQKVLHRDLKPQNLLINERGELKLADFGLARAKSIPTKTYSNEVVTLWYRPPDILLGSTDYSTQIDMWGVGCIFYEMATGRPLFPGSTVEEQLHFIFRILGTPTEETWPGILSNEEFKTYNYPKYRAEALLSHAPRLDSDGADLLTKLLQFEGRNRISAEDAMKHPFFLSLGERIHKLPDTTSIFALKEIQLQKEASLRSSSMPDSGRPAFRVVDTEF
Citron Rho-interacting kinase (Homo sapiens), sequence (O14578 whole entry): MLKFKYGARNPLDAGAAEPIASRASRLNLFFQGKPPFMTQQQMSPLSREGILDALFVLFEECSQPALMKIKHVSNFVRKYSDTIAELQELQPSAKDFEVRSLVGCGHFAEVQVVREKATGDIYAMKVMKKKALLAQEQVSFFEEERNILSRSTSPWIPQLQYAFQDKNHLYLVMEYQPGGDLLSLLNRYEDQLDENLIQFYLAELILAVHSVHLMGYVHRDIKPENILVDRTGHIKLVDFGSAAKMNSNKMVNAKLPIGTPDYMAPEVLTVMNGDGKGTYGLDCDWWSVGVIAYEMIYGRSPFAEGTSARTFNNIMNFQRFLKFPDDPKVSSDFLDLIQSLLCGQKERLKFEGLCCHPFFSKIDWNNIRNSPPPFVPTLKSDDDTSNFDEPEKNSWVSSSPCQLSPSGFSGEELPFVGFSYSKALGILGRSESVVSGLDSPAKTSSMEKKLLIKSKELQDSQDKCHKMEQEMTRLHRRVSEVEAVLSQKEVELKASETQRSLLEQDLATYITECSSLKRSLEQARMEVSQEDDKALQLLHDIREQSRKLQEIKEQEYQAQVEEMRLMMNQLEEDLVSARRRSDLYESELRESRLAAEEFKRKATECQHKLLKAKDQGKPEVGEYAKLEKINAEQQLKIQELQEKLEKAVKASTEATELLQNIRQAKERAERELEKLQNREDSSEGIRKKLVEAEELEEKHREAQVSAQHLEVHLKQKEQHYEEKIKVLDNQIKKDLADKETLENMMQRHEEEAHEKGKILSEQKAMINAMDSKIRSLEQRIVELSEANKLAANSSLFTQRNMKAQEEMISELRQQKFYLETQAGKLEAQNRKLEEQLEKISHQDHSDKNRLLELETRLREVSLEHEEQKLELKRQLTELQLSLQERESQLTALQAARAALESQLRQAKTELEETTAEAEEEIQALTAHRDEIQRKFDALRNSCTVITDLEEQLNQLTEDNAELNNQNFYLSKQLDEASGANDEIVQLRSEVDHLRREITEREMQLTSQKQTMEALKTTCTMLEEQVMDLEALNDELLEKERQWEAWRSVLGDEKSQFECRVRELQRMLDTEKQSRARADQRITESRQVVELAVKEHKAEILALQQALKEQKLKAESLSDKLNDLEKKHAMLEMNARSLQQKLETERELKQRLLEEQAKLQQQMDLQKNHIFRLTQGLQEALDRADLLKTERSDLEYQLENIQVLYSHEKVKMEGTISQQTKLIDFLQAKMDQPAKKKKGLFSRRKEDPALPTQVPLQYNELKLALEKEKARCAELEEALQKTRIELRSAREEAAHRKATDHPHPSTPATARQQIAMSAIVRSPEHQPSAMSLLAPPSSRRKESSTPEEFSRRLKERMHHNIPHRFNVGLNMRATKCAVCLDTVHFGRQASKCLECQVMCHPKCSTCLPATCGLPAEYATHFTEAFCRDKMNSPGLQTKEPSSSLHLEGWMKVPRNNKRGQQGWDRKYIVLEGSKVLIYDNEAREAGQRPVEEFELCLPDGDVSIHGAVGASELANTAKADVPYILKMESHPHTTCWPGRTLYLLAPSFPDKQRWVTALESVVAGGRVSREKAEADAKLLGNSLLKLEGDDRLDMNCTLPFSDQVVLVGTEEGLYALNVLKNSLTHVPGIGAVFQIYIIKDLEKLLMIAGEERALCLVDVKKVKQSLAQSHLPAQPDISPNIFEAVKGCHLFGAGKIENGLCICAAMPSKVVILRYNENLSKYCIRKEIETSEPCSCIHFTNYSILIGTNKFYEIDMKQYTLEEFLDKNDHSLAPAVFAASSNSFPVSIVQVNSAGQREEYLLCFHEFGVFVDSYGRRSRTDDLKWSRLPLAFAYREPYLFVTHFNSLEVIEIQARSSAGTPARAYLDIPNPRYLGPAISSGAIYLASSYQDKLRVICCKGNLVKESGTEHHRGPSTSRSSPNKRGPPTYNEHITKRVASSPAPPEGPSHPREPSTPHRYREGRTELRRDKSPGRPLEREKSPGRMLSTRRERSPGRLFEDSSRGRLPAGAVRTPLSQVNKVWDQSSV
5-hydroxytryptamine receptor 1B (Homo sapiens), sequence (P28222 whole entry): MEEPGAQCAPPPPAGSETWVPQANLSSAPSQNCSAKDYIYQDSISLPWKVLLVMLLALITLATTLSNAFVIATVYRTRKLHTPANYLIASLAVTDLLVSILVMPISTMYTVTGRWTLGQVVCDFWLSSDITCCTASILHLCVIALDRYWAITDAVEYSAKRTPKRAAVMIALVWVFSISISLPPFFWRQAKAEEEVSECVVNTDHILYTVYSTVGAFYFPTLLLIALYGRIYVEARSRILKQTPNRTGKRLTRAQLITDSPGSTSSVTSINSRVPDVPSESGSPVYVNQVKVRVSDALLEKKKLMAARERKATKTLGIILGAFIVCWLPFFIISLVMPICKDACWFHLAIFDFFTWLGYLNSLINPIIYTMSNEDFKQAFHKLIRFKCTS

## CCN(CC)CCCCNc1ncc2cc(-c3cc(OC)cc(OC)c3)c(NC(=O)NC(C)(C)C)nc2n1
[1]
  % of control: 100%

## CCC(=O)N1CCN(c2ccc(-n3c(=O)ccc4cnc5ccc(-c6cnc7ccccc7c6)cc5c43)cc2C(F)(F)F)CC1
[2]
  % of control: 65%

## CN(C)C(=O)Cn1cc(-c2ccc(-c3cncc4ccccc34)cc2)cn1
[3]
  % of control: 53%

## CN(C)CCOc1ccc(-c2nc(-c3ccncc3)c(-c3ccc4c(c3)CC/C4=N\O)[nH]2)cc1
[4]
  % of control: 100%

## O[C@H]1CC[C@H](Nc2ncc3nc(Nc4c(F)cc(F)cc4F)n([C@H]4CCOC4)c3n2)CC1
[5]
  % of control: 83%
[6]
  % of control: 100%

## N#Cc1cccc(-c2c[nH]c3ncnc(N4CCOCC4)c23)c1
[7]
  % of inhibition: 11%
